Results from patent EP4796551A1, “ZWITTERIONIC PHOSPHOLIPID COMPOUND AND LIPID NANOPARTICLE CONTAINING THE SAME” (National University Corporation Hokkaido University, priority 2023, dated 2025).

How the values were obtained:
[1] = Particle size, PDI and ζ-potential of mRNA-LNP (Zetasizer Nano ZS); assay type: physicochemical; conditions: mRNA-LNP formulation phospholipid:CL4F6:Chol:PEG-DMG 10:50:40:1.0, Fluc mRNA
Method: (§1) Ethanol solutions containing each phospholipid, CL4F6, Chol, and PEG2000-dimirystoylglycerol (PEG-DMG) at the molar ratio of 10:50:40:1.0 were prepared at the total lipid concentration of 16 mM. For fluorescent labeling of LNPs, 0.5 mol% of DiI or DiR was added to the above solutions. The firefly luciferase (Fluc)-encoding mRNA (TriLink) was dissolved in a 25 mM acetate buffer (pH 4.0). LNPs were prepared by mixing the lipids in ethanol and RNA in an aqueous solution using an iLiNP device at a total flow rate (TFR) of 0.5 mL/min and a flow rate ratio (FRR) (RNA flow rate/lipid flow rate) of 3. The nitrogen to phosphate (N/P) ratio was adjusted to 6. Syringe pumps (Harvard apparatus) were used to control the flow rate of the solutions. The resulting LNP solutions were then dialyzed for 2 hours or more at 4 °C against phosphate buffered saline without Ca^2+ and Mg^2+ (PBS(-)) using Spectra/Por 4 dialysis membranes (molecular weight cut-off 12,000-14,000 Da, Spectrum Laboratories). The LNP solutions were concentrated by ultrafiltration using an Amicon Ultra-15 unit (MWCO 100 kDa, Millipore) as needed.
(§2) The ζ-average particle size, polydispersity index (PDI), and ζ-potential of the LNPs were measured by means of a Zetasizer Nano ZS ZEN3600 instrument (Malvern Instruments). The encapsulation efficiency and total concentration of mRNA were measured by a Ribogreen assay according to a conventional method.

[2] = Ribogreen assay, mRNA encapsulation efficiency of LNP; assay type: physicochemical; conditions: mRNA-LNP formulation phospholipid:CL4F6:Chol:PEG-DMG 10:50:40:1.0, Fluc mRNA
Method: as §1, §2

erythrocytes (RBCs) = assay: Membrane disruption ability of LNP (hemolytic activity); assay type: cell-based, BALB/c mice; conditions: pH 6.0, 37°C, 30 minutes, Fig. 6B
Method: In order to use as an index of endosomal escape efficiency of LNP, membrane disruption ability of LNP was evaluated using erythrocytes as a model biological membrane. Specifically, fresh erythrocytes (RBCs) were collected from BALB/c mice and suspended in a buffer solution (10 mM malic acid, 10 mM HEPES, 10 mM MES, and 120 mM NaCl) at pH 5.0, 6.0, or 7.4. The RBC suspension was mixed with the same amount of each LNP suspension (containing DOPE-C8, DOPE, or DSPC as phospholipid) and reacted at 37°C for 30 minutes. Then, the supernatant was collected, absorbance at 545 nm was measured, and hemoglobin leaked from the erythrocytes was quantified. As a positive control, a sample hemolyzed with 0.5 w/v% Triton X-100 was prepared, and as a negative control, a sample not containing LNP was prepared. The ratio of the absorbance of the test sample to the absorbance of the positive control was expressed as % hemolytic activity.

[3] = Lipid polymorphism by 31P NMR method (mixtures with POPC); assay type: physicochemical
Method: In order to examine the interaction between DOPE-Cx and PC and characteristics thereof, lipid polymorphism of the lipid suspension was evaluated by a ^31P NMR method. Since the rotational motion of lipid molecules in a lamellar phase which is a planar structure and a (inverted) hexagonal phase which is a tubular structure receives different restrictions respectively, a specific ^31P NMR spectrum is provided by chemical shift anisotropy. Specifically, the lamellar phase produces a broad […] peak, and the (inverted) hexagonal phase produces a broad […] peak.
First, DOPE or DOPE-C8 and 1-palmitoyl-2-oleoyl-sn-glycero-3-phosphocholine (POPC) were mixed at a predetermined ratio in 400 µL of chloroform (total lipid 16 µmol), and the solvent was removed by a rotary evaporator to form a lipid membrane. The lipid membrane was hydrated with 500 µL of 20 mM HEPES buffer (pH 7.4, 130 mM NaCl) at 60°C. Then, the lipid dispersion was transferred to an NMR tube, and a ^31P NMR spectrum at room temperature was measured by a conventional method using an ECX 400P spectrometer (JEOL Ltd.).

liver [4] = assay: mRNA introduction ability: luciferase activity in the liver after intravenous Fluc mRNA-LNP; assay type: in vivo, BALB/c mice; conditions: 0.01 mg RNA/kg, livers collected 6 hours later
Method: as §1, with “The resulting LNP solutions were then dialyzed for 2 hours or more at 4 °C against phosphate buffered saline without Ca^2+ and Mg^2+ (PBS(-)) using Spectra/Por 4 dialysis membranes (molecular weight cut-off 12,000-14,000 Da, Spectrum Laboratories). The LNP solutions were concentrated by ultrafiltration using an Amicon Ultra-15 unit (MWCO 100 kDa, Millipore) as needed.” left out
The mRNA-LNP formulations prepared in the above item (2) were intravenously administered to BALB/c mice at a dose of 0.01 mg RNA/kg, and the livers were collected by a conventional method 6 hours later. […] The supernatant was collected, and […] was measured by a luminometer (Luminescencer-PSN, ATTO Corporation) using Luciferase Assay System (Promega). The protein concentration was determined using a BCA protein assay kit (Pierce). Fluc activity was expressed as relative light units (RLU) per 1 mg of protein.

liver [5] = assay: EGFP expression in the liver after intravenous EGFP mRNA-LNP (CLSM); assay type: in vivo, BALB/c mice; conditions: Fig. 5, LNP containing the phospholipid, 1 mg RNA/kg, 24 hours later, compared with DSPC or DOPE LNP
Method: Further, an mRNA-LNP formulation was prepared in the same manner as in the above item (2) except that mRNA encoding EGFP (TriLink) was used as mRNA, and it was intravenously administered to BALB/c mice at a dose of 1 mg RNA/kg. Then, 24 hours later, the liver was collected by a conventional method, and expression of EGFP was observed using a confocal laser scanning microscope (CLSM).

[6] = Lipid polymorphism by SAXS method; assay type: physicochemical; conditions: DOPE-C8 and POPC at a molar ratio of 1:1, Fig. 10
Method: In order to identify the phase of the lipid suspension obtained by mixing DOPE-C8 and POPC at a molar ratio of 1:1, measurement by a small-angle X-ray scattering (SAXS) method was performed by a conventional method using a NANO-Viewer apparatus (Rigaku Corporation).

[7] = lipid alone (lipid:POPC=1:0), 20 mM HEPES pH 7.4, room temperature
[8] = lipid:POPC molar ratio 1:1, 20 mM HEPES pH 7.4, room temperature

Number average particle size (nm) ([1]; Table 1) | PDI ([1]; Table 1) | ζ-potential (mV) ([1]; Table 1) | ζ-average particle size (nm) ([1]; Table 1, N/P 6) | Number average particle size (nm) ([1]; Table 2) | PDI ([1]; Table 2) | ζ-average particle size (nm) ([1]; Table 2) | ζ-potential (mV) ([1]; Table 2) | mRNA encapsulation rate % ([2]; Table 1) | mRNA encapsulation rate % ([2]; Table 2) | Compound | lipid phase by 31P NMR spectrum [3, 8] | other results
57 nm | 0.25 | -2.5 mV | 88 nm | 67 nm | 0.13 | 95 nm | -2.9 mV | 93.0% | 92.8% | CCCCCCCC/C=C\CCCCCCCC(=O)OC[C@H](COP(=O)(O)OCCN)OC(=O)CCCCCCC/C=C\CCCCCCCC [DOPE, 1,2-dioleoyl-sn-glycero-3-phosphoethanolamine, reference compound] |  | membrane disruption activity (hemolytic activity) (erythrocytes (RBCs)): higher membrane disruption activity than the LNP containing DSPC; lipid phase by 31P NMR spectrum [3, 7]: spectrum derived from the inverted hexagonal phase; lipid phase by 31P NMR spectrum ([3]; lipid:POPC=9:1, 20 mM HEPES pH 7.4, room temperature): transition to the lamellar phase occurred
 |  |  |  | 73 nm | 0.07 | 94 nm | -5.0 mV |  | 95.7% | CCCCCCCC/C=C\CCCCCCCC(=O)OC[C@H](COP(=O)(O)OCCNCCC(=O)OCC(CC)CCCC)OC(=O)CCCCCCC/C=C\CCCCCCCC (stereo partly drawn) [DOPE-C6_β2, (R)-2,3-bis(oleoyloxy)propyl (2-((3-((2-ethylhexyl)oxy)-3-oxopropyl)ammonio)ethyl) phosphate] |  | luciferase activity in the liver (liver [4]; Figs. 3 and 4, LNP containing the phospholipid): highest activity
 |  |  |  | 61 nm | 0.08 | 79 nm | -9.6 mV |  | 96.0% | CCCCCCCC/C=C\CCCCCCCC(=O)OC[C@H](COP(=O)(O)OCCNCCC(=O)OCC(CCC)CCCCC)OC(=O)CCCCCCC/C=C\CCCCCCCC (stereo partly drawn) [DOPE-C7_β3, (R)-2,3-bis(oleoyloxy)propyl (2-((3-oxo-3-((2-propylheptyl)oxy)propyl)ammonio)ethyl) phosphate] | the ratio derived from the inverted hexagonal phase increased | 
62 nm | 0.21 | -5.6 mV | 94 nm |  |  |  |  | 92.6% |  | CCCCCCCC/C=C\CCCCCCCC(=O)OC[C@H](COP(=O)(O)OCCNCCC(=O)OCCCCCCCC)OC(=O)CCCCCCC/C=C\CCCCCCCC [DOPE-C8, (R)-2,3-bis(oleoyloxy)propyl (2-((3-(octyloxy)-3-oxopropyl)ammonio)ethyl) phosphate] | sharp peak centered at 0 ppm | Number average particle size (nm) ([1]; Table 3): 55 nm; PDI ([1]; Table 3): 0.17; ζ-average particle size (nm) ([1]; Table 3): 80 nm; ζ-potential (mV) ([1]; Table 3): -12.8 mV; mRNA encapsulation rate % ([2]; Table 3): 97.6%; luciferase activity in the liver (liver [4]; Fig. 2, n=3, LNP containing the phospholipid): highest activity; expression of EGFP in the liver (liver [5]): significantly higher expression of EGFP; membrane disruption activity (hemolytic activity) (erythrocytes (RBCs)): higher membrane disruption activity than the LNP containing DSPC; lipid phase by 31P NMR spectrum ([3]; POPC content increased beyond 1:1, Fig. 7B): the peak derived from the lamellar phase became stronger in a POPC content-dependent manner; lipid phase by 31P NMR spectrum [3, 7]: spectrum derived from the inverted hexagonal phase; phase of the lipid suspension by SAXS [6]: Im3m type inverse bicontinuous cubic phase
 |  |  |  | 71 nm | 0.21 | 112 nm | -5.8 mV |  | 96.3% | CCCCCCCC/C=C\CCCCCCCC(=O)OC[C@H](COP(=O)(O)OCCNCCC(=O)OCC(CCCC)CCCCCC)OC(=O)CCCCCCC/C=C\CCCCCCCC (stereo partly drawn) [DOPE-C8_β4, (R)-2,3-bis(oleoyloxy)propyl (2-((3-((2-butyloctyl)oxy)-3-oxopropyl)ammonio)ethyl) phosphate] | the ratio derived from the inverted hexagonal phase increased | 
48 nm | 0.18 | -7.0 mV | 82 nm |  |  |  |  | 93.1% |  | CCCCCCCC/C=C\CCCCCCCC(=O)OC[C@H](COP(=O)(O)OCCNCCC(=O)OCCCCCCCCCC)OC(=O)CCCCCCC/C=C\CCCCCCCC [DOPE-C10, (R)-2,3-bis(oleoyloxy)propyl (2-((3-(decyloxy)-3-oxopropyl)ammonio)ethyl) phosphate] | the ratio derived from the inverted hexagonal phase increased | 
59 nm | 0.25 | -6.3 mV | 100 nm |  |  |  |  | 94.2% |  | CCCCCCCC/C=C\CCCCCCCC(=O)OC[C@H](COP(=O)(O)OCCNCCC(=O)OCCCCCCCCCCCC)OC(=O)CCCCCCC/C=C\CCCCCCCC [DOPE-C12, (R)-2,3-bis(oleoyloxy)propyl (2-((3-(dodecyloxy)-3-oxopropyl)ammonio)ethyl) phosphate] | the ratio derived from the inverted hexagonal phase increased | 
56 nm | 0.18 | -2.9 mV | 81 nm |  |  |  |  | 93.9% |  | CCCCCCCC/C=C\CCCCCCCCOC(=O)CCNCCOP(=O)(O)OC[C@@H](COC(=O)CCCCCCC/C=C\CCCCCCCC)OC(=O)CCCCCCC/C=C\CCCCCCCC [DOPE-C18:1, (R)-2,3-bis(oleoyloxy)propyl (2-((3-(((Z)-octadeca-9-ene-1-yl)oxy)-3-oxopropyl)ammonio)ethyl) phosphate] | the ratio derived from the inverted hexagonal phase increased | 
